Target: T1, AR in LNCaP cytosol (Homo sapiens, UniProt P10275, T878A)
T1 construct: AR in LNCaP cytosol was used; endogenous in cells; host or cells: LNCaP cells (cytosol)
T1 sequence (P10275 1-920 T878A): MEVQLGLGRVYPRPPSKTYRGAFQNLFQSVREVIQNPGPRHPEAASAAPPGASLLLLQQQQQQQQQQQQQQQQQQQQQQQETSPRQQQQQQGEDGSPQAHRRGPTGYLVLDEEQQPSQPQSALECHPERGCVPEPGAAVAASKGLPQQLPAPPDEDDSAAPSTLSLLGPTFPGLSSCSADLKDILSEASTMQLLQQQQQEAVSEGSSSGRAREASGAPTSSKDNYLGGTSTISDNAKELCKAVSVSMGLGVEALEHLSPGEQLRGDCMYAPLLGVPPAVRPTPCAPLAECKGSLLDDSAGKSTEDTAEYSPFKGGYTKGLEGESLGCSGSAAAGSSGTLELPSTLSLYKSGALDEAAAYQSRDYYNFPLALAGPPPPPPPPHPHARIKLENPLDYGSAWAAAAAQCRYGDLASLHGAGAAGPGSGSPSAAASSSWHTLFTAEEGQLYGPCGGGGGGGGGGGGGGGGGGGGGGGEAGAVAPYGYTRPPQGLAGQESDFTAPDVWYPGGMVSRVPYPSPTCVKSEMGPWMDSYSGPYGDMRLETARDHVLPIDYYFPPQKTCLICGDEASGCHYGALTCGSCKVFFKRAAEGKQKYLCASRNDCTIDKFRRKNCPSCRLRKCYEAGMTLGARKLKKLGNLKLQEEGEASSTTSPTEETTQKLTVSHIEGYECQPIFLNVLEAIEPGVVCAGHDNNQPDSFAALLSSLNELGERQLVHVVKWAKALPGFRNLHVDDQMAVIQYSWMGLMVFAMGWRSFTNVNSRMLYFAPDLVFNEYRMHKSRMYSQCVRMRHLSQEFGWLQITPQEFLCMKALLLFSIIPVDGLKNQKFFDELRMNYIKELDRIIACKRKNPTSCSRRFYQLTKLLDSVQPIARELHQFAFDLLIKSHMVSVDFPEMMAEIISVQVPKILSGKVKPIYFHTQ
Test: AR binding assay, 3H-methyltrienolone (Biological Example 1)
Settings: Table 6, in vitro NHR binding; Ki=IC50/(1+[L]/Kd), [L] 1 nM, Kd 0.332 nM
Protocol: The following methods are for evaluating the in vitro biology properties of the test articles. • a. RBC HotSpot Poly(ADP-ribose) Polymerases 1 (PARP1) and Poly(ADP-ribose) Polymerases 2 (PARP2) Assays: The assay was conducted at Reaction Biology Corporation (RBC; Malvern, PA). The assay principle is radioisotope-based filter binding assay where incorporation of radioisotope-labeled NAD^+ into the substrate captured on filter is detected after washout free NAD^+. Data were analyzed using Excel and GraphPad Prism software for IC50 curve fits. Each assay was conducted with PJ34 as a positive control. […] After incubation for 2 hrs at room temperature, the reaction mixture was filtered and washed with 0.75% phosphoric acid for radioactivity detection. • ii. […] After incubation for 2 hrs at room temperature, the reaction mixture was filtered and washed with 0.75% phosphoric acid for radioactivity detection. • b. […] IC50 s were determined using 8 concentrations/compound. […] Radioactivity is counted using a TriCarb 2910 TR scintillation counter (PerkinElmer). […] The Ki values were further calculated using the equation below where [L] is the radioligand concentration (1 nM) used in this study. […]

Cn1ncnc1C1c2n[nH]c(=O)c3cc(F)cc(c23)N[C@@H]1c1ccc(NC(=O)CCCCCO[C@@H]2CC[C@H]3[C@@H]4CC[C@H]5CCCC[C@]5(C)[C@H]4CC[C@]23C)cc1 (stereo partly drawn) [Compound 1128, 6-((5R,8R,9S,10S,13S,14S,17R)-10,13-dimethylhexadecahydro-1H-cyclopenta[a]phenanthren-17-yloxy)-N-(4-((8S)-5-fluoro-9-(1-methyl-1H-1,2,4-triazol-5-yl)-3-oxo-3,7,8,9-tetrahydro-2H-pyrido[4,3,2-de]phthalazin-8-yl)phenyl)hexanamide]
Ki: > 7.47 µM
